Results: patent US12213479B2, “Monoterpenoid/phenylpropanoid-containing compounds and methods of their making and use as herbicides” (KITTRICH CORPORATION, priority 2016, dated 2025)
“Also recorded” adds a separate entry of the source.

Experiments:
Wood sorrel = assay: Foliar spray, wood sorrel; assay type: in vivo; conditions: 20 sprays of 1%, observed 2 days after exposure and later
Procedure: Wood sorrel on the ground of the greenhouse was also treated with active ingredient in order to better assess the effects of foliar treatments on multiple plant species. A patch of wood sorrel was (approximately 4′×3′) was treated with 20 sprays (mist setting) from a MAINStays ironing spray bottle. Effects of the spray were recorded 2 days after exposure.

[1] = tested on: Palmer Amaranth (Amaranthus palmeri); assay: Toxicity assay (probit LC50), Palmer amaranth; assay type: in vivo
From the text: (§1) Palmer amaranth seeds were obtained from the Department of Agronomy at Iowa State University. Individual seeds were sown for each pot (1.5″ wide×3″ deep) with approximately 7.5 g of soil for each plot. Five seeds/plot were sown into numerous plots. After one month of germination, germinated plants were counted in each plot and this number was used for the total number of plants challenged per plot in the toxicity assessment
(§2) The total number of plants were counted in each plot in 24×6 hexagonal small plot planter tray. The number of germinated seeds in each plot was enumerated after one month, and for each plot this number was recorded and used as the total for each plot. Differing concentrations of thymyloxyacetic acid was applied in 5% Triton-X 100 and 1:1 molar ratio potassium hydroxide:thymyloxyacetic acid to aid in the solubility of the compound in water. Ten mL of solution was applied to each plot, and the mortality of the plants was assessed at 3 days and 2 weeks post application (for some treatments). Mortality at these time points were enumerated out of the total plants germinated in each plot at the beginning of the assay. At both time points, the total number of dead plants and total number of plants at the beginning of the assay were recorded for each observation. A Probit model was used to calculate the LC50 values for each of the compounds explored in this assay. A formulation control (with no active ingredient) was screened against a number of plants and factored into the final probit model. This formulation control had little-to-no effect by itself.

[2] = tested on: Waterhemp (Amaranthus tuberculatus); assay: Toxicity assay (probit LC50), waterhemp; assay type: in vivo
From the text: as §1, with “Waterhemp seeds” for “Palmer amaranth seeds”, “seeds/plot was” for “seeds/plot were”, “toxicity assessment.” for “toxicity assessment”
as §2

[3] = tested on: Cocklebur (Xanthium spp.); assay: Toxicity assay (probit LC50), cocklebur; assay type: in vivo
From the text: as §1, with “Cocklebur burs” for “Palmer amaranth seeds”, “One bur/plot was” for “Five seeds/plot were”, “assessment.” for “assessment”
as §2

[4] = tested on: various dicot weed species; assay: Selectivity assessment, dicot weed species compared to bluegrass; assay type: in vivo; conditions: range over various weed species
From the text: Kentucky bluegrass seeds were purchased in a bag under the commercial name of. Individual seeds were sown for each pot (1.5″ wide×3″ deep) with approximately 7.5 g of soil for each plot. 10 seeds/plot was sown into numerous plots. After one month of germination, germinated plants were counted in each plot and this number was used for the total number of plants challenged per plot in the toxicity assessment.
as §2, with “A formulation control (with no active ingredient) was screened against a number of plants and factored into the final probit model. This formulation control had little-to-no effect by itself.” left out

corn seeds = assay: Germination assay, corn seeds coated with compound; conditions: for inhibition of corn seed germination: seed coating 1% weight compound/weight seed, 3, 5, 7 days
soybeans = assay: Germination assay, soybeans coated with compound; assay type: in vivo, soybean; conditions: beans coated in 1% weight compound/weight bean
From the text: Soybeans were susceptible to Aphis glycines infestation and were not determined to be a biotype that was resistant to infestation, which could confide results. Germination typically occurred between 3-5 days after moistening.

Soybean plants [5] = assay: Soil drench assay, soybean plants; assay type: in vivo; set-up: key to phytotoxicity (qualitative), soil drench: NOE: No Observable Effect; XXX: Dead; -: the lowest phytotoxic effect; --: phytotoxicity that did not result in death; ---: phytotoxicity that did not result in death; ------: the highest; conditions: for phytotoxicity (qualitative), soil drench: Soybean, 40 mL; for overall phytotoxicity to soybean plants, soil drench: 0.5%-1% formulations
Procedure: Soybean plants were planted under 1 cm of potting soil and watered every 2-3 days as necessary. Plants were grown in pots (6″ wide×4.5″ deep) with approximately 800 mL of soil for each plant. Seeds germinated approximately 3-5 days after being planted. Plants were grown in a greenhouse under a constant temperature and light environment (25±5° C., 12 hr: 12 hr light: dark cycle). Plants were grown until reaching 1-2 weeks old and 3-4 weeks old; these plants served as the “young” and “old” plants in this study, respectively.
Formulations of the various active ingredients were created using the monoterpenoid derivatives, potassium hydroxide, and Triton-X 100™ to aid in the solvation of the active ingredient. Formulations consisted of 0.5%-1% active ingredient by weight (0.5-1 g/100 ml water), with a 1:1 molar ratio of potassium hydroxide used to aid in the solvation (135-269 mg/100 mL for both thymyloxyacetic acid and carvacryloxyacetic acid). […] Formulations were applied to the soil next to the base of the stem of the plant to avoid foliar contact. Observations were performed 2 days and 3 weeks after soil drench to determine the effects of the treatments on the various types and stages of plants.

Corn plants = assay: Soil drench assay, corn plants; assay type: in vivo; set-up: key to phytotoxicity (qualitative), soil drench: NOE: No Observable Effect; XXX: Dead; -: the lowest phytotoxic effect; --: phytotoxicity that did not result in death; ---: phytotoxicity that did not result in death; ------: the highest; conditions: for phytotoxicity (qualitative), soil drench: Corn, 40 mL; for overall phytotoxicity to corn plants, soil drench: 0.5%-1% formulations
Procedure: Corn plants were planted under ½″ of potting soil and watered every 2-3 days as necessary. Plants were grown in potting plants (6″ wide×4.5″ deep) with approximately 800 mL of soil for each plant. Seeds germinated approximately 4-7 days after being planted. Plants were grown in a greenhouse under a constant temperature and light environment (25±5° C., 12 hr: 12 hr light: dark cycle). Plants were grown until reaching 1-2 weeks old and 3-4 weeks old; these plants served as the “young” and “old” plants in this study, respectively. Formulations of the various active ingredients were created using the monoterpenoid derivatives, potassium hydroxide, and Triton-X 100™ to aid in the solvation of the active ingredient. […] Formulations were applied to the soil next to the base of the stem of the plant to avoid foliar contact. Observations were performed 2 days and 3 weeks after soil drench to determine the effects of the treatments on the various types and stages of plants.

Soybean plants [6] = assay: Soil drench assay, soybean plants; assay type: in vivo; set-up: key: NOE: No Observable Effect; XXX: Dead; -: the lowest phytotoxic effect; --: phytotoxicity that did not result in death; ---: phytotoxicity that did not result in death; ------: the highest; conditions: 3-weeks after treatment, Old Plants, 7%, 40 mL
[7] = 2-days after treatment, Old Plants, 0.50%
[8] = 2-days after treatment, Old Plants, 1%
[9] = 2-days after treatment, Young Plants, 0.50%
[10] = 2-days after treatment, Young Plants, 1%
[11] = 3-weeks after treatment, Old Plants, 0.50%
[12] = 3-weeks after treatment, Young Plants, 0.50%
[13] = 3-weeks after treatment, Young Plants, 1%
[14] = 3-weeks after treatment, Old Plants, 1%

| Structure (SMILES) | inhibition of corn seed germination (corn seeds) | inhibition of soybean germination/growth (words) (soybeans) | phytotoxicity (qualitative), soil drench (Soybean plants [5]; [7]) | phytotoxicity (qualitative), soil drench (Soybean plants [5]; [8]) | phytotoxicity (qualitative), soil drench (Soybean plants [5]; [9]) | phytotoxicity (qualitative), soil drench (Soybean plants [5]; [10]) | phytotoxicity (qualitative), soil drench (Soybean plants [5]; [11]) | phytotoxicity (qualitative), soil drench (Soybean plants [5]; [12]) | phytotoxicity (qualitative), soil drench (Soybean plants [5]; [13]) | phytotoxicity (qualitative), soil drench (Corn plants; [7]) | phytotoxicity (qualitative), soil drench (Corn plants; [8]) | phytotoxicity (qualitative), soil drench (Corn plants; [9]) | phytotoxicity (qualitative), soil drench (Corn plants; [10]) | phytotoxicity (qualitative), soil drench (Corn plants; [11]) | phytotoxicity (qualitative), soil drench (Corn plants; [14]) | phytotoxicity (qualitative), soil drench (Corn plants; [12]) | phytotoxicity (qualitative), soil drench (Corn plants; [13]) | phytotoxicity (qualitative), soil drench (Soybean plants [6]) | overall phytotoxicity to soybean plants, soil drench (Soybean plants [5]) | overall phytotoxicity to corn plants, soil drench (Corn plants) | further results |
| --- | --- | --- | --- | --- | --- | --- | --- | --- | --- | --- | --- | --- | --- | --- | --- | --- | --- | --- | --- | --- | --- |
| O=C(O)COc1ccc(Cl)cc1Cl [2,4-D, 2,4-dichlorophenoxyacetic acid] |  |  |  |  |  |  |  |  |  |  |  |  |  |  |  |  |  |  |  |  | phytotoxic effect on wood sorrel, foliar spray (Wood sorrel): took much longer to die; phytotoxic effect on wood sorrel, foliar spray (Wood sorrel; listed as 2,4-dichloroacetic acid): plant death was not observed until much later; also recorded: uncontrolled growth and some chlorosis; LC50 Value ([1]; Palmer Amaranth (Table 6)): 1300 ppm; Selective Toxicity Compared to Bluegrass ([1]; Palmer Amaranth compared to bluegrass): 3.54; LC50 Value ([1]; Palmer Amaranth, 2-week post application, probit): 465.04 ppm; LC50 Value ([1]; Palmer Amaranth, 3-day post application, probit): 1300 ppm; phytotoxicity compared with the other compound ([1]; Palmer amaranth, 95% confidence intervals overlapped): marginally more phytotoxic than thymyloxyacetic acid; LC50 at two weeks compared with three days after application (residual character in soil) ([1]; in vivo): significantly lower LC50 value; LC50 Value ([2]; Waterhemp): 1800 ppm; Selective Toxicity Compared to Bluegrass ([2]; Waterhemp compared to bluegrass): 2.56; LC50 Value ([3]; Cocklebur): 770 ppm; Selective Toxicity Compared to Bluegrass ([3]; Cocklebur compared to bluegrass): 5.97; selectivity ratio compared to a blue grass species [4]: 2.56-5.97 fold |
| C=CCc1ccc(OCC(=O)OC)c(OC)c1 [eugenyloxyacetic acid methyl ester] | most capable of inhibiting the growth of corn seeds |  |  |  |  |  |  |  |  |  |  |  |  |  |  |  |  |  |  |  |  |
| C=CCc1ccc(OCC(=O)O)c(OC)c1 [eugenyloxyacetic acid, 2-(4-allyl-2-methoxyphenoxy)acetic acid] |  | prevented the growth of soybeans | - | - | - | -- | XXX | - | XXX | NOE | - | NOE | NOE | - | -- | - | -- | - |  |  | corn seed germination at day 3 (corn seeds; seed coating, day 3): some level of germination |
| COC(=O)COc1cc(C)ccc1C(C)C [thymyloxyacetate methyl ester] |  |  | --- |  | --- |  | XXX | XXX | XXX | -- | -- | -- | -- | XXX | XXX | XXX | XXX | XXX | significantly inhibited the growth of soybeans | most phytotoxic to corn |  |
| COc1cc(C(=O)O)ccc1OCC(=O)O [vanillic acid-oxyacetic acid, 4-(carboxymethoxy)-3-methoxybenzoic acid] | significantly inhibited by all compounds screened except for |  | NOE | NOE | NOE | NOE | NOE | NOE | NOE | NOE | NOE | NOE | NOE | NOE | NOE | NOE | NOE | NOE | did not cause phytotoxic effects | did not produce significant phytotoxic symptoms |  |
| COc1cc(C=O)ccc1OCC(=O)O [vanillyloxyacetic acid, 2-(4-formyl-2-methoxyphenoxy)acetic acid] | significantly inhibited by all compounds screened except for | little to no inhibitory effect | NOE | NOE | NOE | NOE | NOE | NOE | NOE | NOE | NOE | NOE | NOE | NOE | NOE | NOE | NOE | NOE | did not cause phytotoxic effects | did not produce significant phytotoxic symptoms | inhibition of soybean germination/growth (words) (soybeans; listed as Vanillyloxyacetic acid): does not produce significant inhibition of plant growth |
